Read-outs that look alike come from different tables or passages of the source.
Target: PRPK/TPRKB complex (also PRPK/PRPKB; PRPK aka TP53RK) (Homo sapiens, UniProt Q96S44)
Experiment: ITC
Type: binding

Chain of PRPK/TPRKB complex (also PRPK/PRPKB; PRPK aka TP53RK) (Q96S44 whole entry, other chains not shown): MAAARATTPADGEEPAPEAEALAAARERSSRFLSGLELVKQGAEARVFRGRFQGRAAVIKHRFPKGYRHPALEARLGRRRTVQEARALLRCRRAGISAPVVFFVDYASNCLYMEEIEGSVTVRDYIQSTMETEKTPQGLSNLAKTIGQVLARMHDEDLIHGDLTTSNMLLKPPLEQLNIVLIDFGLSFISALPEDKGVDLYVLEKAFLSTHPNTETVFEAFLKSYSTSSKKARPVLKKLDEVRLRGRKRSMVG

For `O=C1CCC(N2C(=O)c3cccc(O)c3C2=O)C(=O)N1` (centres unmarked) [TXM-01-027-1, 2-(2,6-dioxopiperidin-3-yl)-4-hydroxyisoindoline-1,3-dione], the Kd was 2.2 µM.
For `C[C@]1(N2C(=O)c3cccc(O)c3C2=O)CCC(=O)NC1=O` [DB-B5, (S)-4-hydroxy-2-(3-methyl-2,6-dioxopiperidin-3-yl)isoindoline-1,3-dione], the Kd (pH […] °C, […] DMSO) was 27 µM.
Work on `C[C@@]1(N2C(=O)c3cccc(O)c3C2=O)CCC(=O)NC1=O` [DB-A5, (R)-4-hydroxy-2-(3-methyl-2,6-dioxopiperidin-3-yl)isoindoline-1,3-dione] yielded a Kd (pH […] °C, […] DMSO, crystal structure solved here, ATP site) of 1.8 ± 0.4 µM.
`COc1cccc2c1C(=O)N([C@]1(C)CCC(=O)NC1=O)C2=O` [DB-A5-OMe, (R)-4-methoxy-2-(3-methyl-2,6-dioxopiperidin-3-yl)isoindoline-1,3-dione] was tested, and the Kd was > 1000 µM.
With `Nc1ccc2c(c1)C(=O)N(C1CCC(=O)NC1=O)C2=O` (centres unmarked) [Compound2, 5-amino-2-(2,6-dioxopiperidin-3-yl)isoindoline-1,3-dione] the Kd was 6.1 ± 0.5 µM.
